{"source": "patent EP4617278A1", "about": "“NUCLEOTIDE ANALOG, AND COMPOSITION AND USE THEREOF” (priority 2022, dated 2024)"}
{"test_system": "SARS-CoV-2 replicon", "format": "cell-based", "settings": "read-out: SARS-CoV-2 Replicon (Huh-7cell) EC50", "units": {"EC50": "nM"}}
{"compound": "CC(C)C(=O)O[C@H]1[C@@H](OC(=O)C(C)C)[C@](C#N)(c2ccc3c(N)ncnn23)O[C@@H]1CO[P@@](=O)(N[C@@H](CC(=O)OC1CCC1)C(=O)OC1CCC1)Oc1ccccc1", "note": "[Compound 54b, (2R,3R,4R,5R)-2-(4-aminopyrrolo[2,1-f][1,2,4]triazin-7-yl)-2-cyano-5-((((S)-(((S)-1,4-dicyclobutoxy-1,4-dioxobutan-2-yl)amino)(phenoxy)phosphoryl)oxy)methyl)tetrahydrofuran-3,4-diyl bis(2-methylpropionate)]", "EC50": "< 5"}
{"compound": "CCC(CC)COC(=O)C[C@H](N[P@@](=O)(OC[C@H]1O[C@@](C#N)(c2ccc3c(N)ncnn23)[C@H](OC(=O)C(C)C)[C@@H]1OC(=O)C(C)C)Oc1ccccc1)C(=O)OCC(CC)CC", "note": "[Compound 62a, (2R,3R,4R,5R)-2-(4-aminopyrrolo[2,1-f][1,2,4]triazin-7-yl)-2-cyano-5-((((R)-(((S)-1,4-bis(2-ethylbutoxy)-1,4-dioxobutan-2-yl)amino)(phenoxy)phosphoryl)oxy)methyl)tetrahydrofuran-3,4-diyl bis(2-methylpropionate)]", "EC50": "50 to 500"}
{"compound": "CCC(CC)COC(=O)C[C@H](N[P@](=O)(OC[C@H]1O[C@@](C#N)(c2ccc3c(N)ncnn23)[C@H](OC(=O)C(C)C)[C@@H]1OC(=O)C(C)C)Oc1ccccc1)C(=O)OCC(CC)CC", "note": "[Compound 62b, (2R,3R,4R,5R)-2-(4-aminopyrrolo[2,1-f][1,2,4]triazin-7-yl)-2-cyano-5-((((S)-(((S)-1,4-bis(2-ethylbutoxy)-1,4-dioxobutan-2-yl)amino)(phenoxy)phosphoryl)oxy)methyl)tetrahydrofuran-3,4-diyl bis(2-methylpropionate)]", "EC50": "10 to 50"}
{"compound": "CC(C)C(=O)O[C@H]1[C@@H](OC(=O)C(C)C)[C@](C#N)(c2ccc3c(N)ncnn23)O[C@@H]1CO[P@](=O)(N[C@@H](Cc1ccccc1)C(=O)OC1CCC1)Oc1ccccc1", "note": "[Compound 63a]", "EC50": "10 to 50"}
{"compound": "CC(C)C(=O)O[C@H]1[C@@H](OC(=O)C(C)C)[C@](C#N)(c2ccc3c(N)ncnn23)O[C@@H]1CO[P@@](=O)(N[C@@H](Cc1ccccc1)C(=O)OC1CCC1)Oc1ccccc1", "note": "[Compound 63b, (2R,3R,4R,5R)-2-(4-aminopyrrolo[2,1-f][1,2,4]triazin-7-yl)-2-cyano-5-((((S)-(((S)-1-cyclobutoxy-1-oxo-3-phenylpropan-2-yl)amino)(phenoxy)phosphoryl)oxy)methyl)tetrahydrofuran-3,4-diyl bis(2-methylpropionate)]", "EC50": "< 5"}
{"compound": "COC(C)(C)COC(=O)[C@H](Cc1ccccc1)N[P@@](=O)(OC[C@H]1O[C@@](C#N)(c2ccc3c(N)ncnn23)[C@H](OC(=O)C(C)C)[C@@H]1OC(=O)C(C)C)Oc1ccccc1", "note": "[Compound 64a, (2R,3R,4R,5R)-2-(4-aminopyrrolo[2,1-f][1,2,4]triazin-7-yl)-2-cyano-5-((((R)-(((S)-1-(2-methoxy-2-methylpropoxy)-1-oxo-3-phenylpropan-2-yl)amino)(phenoxy)phosphoryl)oxy)methyl)tetrahydrofuran-3,4-diyl bis(2-methylpropionate)]", "EC50": "< 5"}
{"compound": "COC(C)(C)COC(=O)[C@H](Cc1ccccc1)N[P@](=O)(OC[C@H]1O[C@@](C#N)(c2ccc3c(N)ncnn23)[C@H](OC(=O)C(C)C)[C@@H]1OC(=O)C(C)C)Oc1ccccc1", "note": "[Compound 64b, (2R,3R,4R,5R)-2-(4-aminopyrrolo[2,1-f][1,2,4]triazin-7-yl)-2-cyano-5-((((S)-(((S)-1-(2-methoxy-2-methylpropoxy)-1-oxo-3-phenylpropan-2-yl)amino)(phenoxy)phosphoryl)oxy)methyl)tetrahydrofuran-3,4-diyl bis(2-methylpropionate)]", "EC50": "< 5"}
{"compound": "CC(C)OC(=O)OCOP(=O)(OCOC(=O)OC(C)C)OC[C@H]1O[C@@](C#N)(c2c(Br)cc3c(N)ncnn23)[C@H](OC(=O)C(C)C)[C@@H]1OC(=O)C(C)C", "note": "[Compound 65, (2R,3R,4R,5R)-2-(4-amino-6-bromopyrrolo[2,1-f][1,2,4]triazin-7-yl)-5-(((bis(((isopropoxycarbonyl)oxy)methoxy)phosphoryl)oxy)methyl)-2-cyanotetrahydrofuran-3,4-diyl bis(2-methylpropionate)]", "EC50": "50 to 500"}
{"compound": "(2R,3R,4R,5R)-2-(4-aminopyrrolo[2,1-f][1,2,4]triazin-7-yl)-2-cyano-5-((((R)-(((S)-1-(2-ethylbutoxy)-1-oxopropan-2-yl)amino)(((isopropoxycarbonyl)oxy)methoxy)phosphoryl)oxy)methyl)tetrahydrofuran-3,4-diyl diacetate [Compound 5a]", "EC50": "50 to 500"}
{"compound": "(2R,3R,4R,5R)-2-(4-aminopyrrolo[2,1-f][1,2,4]triazin-7-yl)-2-cyano-5-((((R)-(((S)-1-isopropoxy-1-oxopropan-2-yl)amino)(((isopropoxycarbonyl)oxy)methoxy)phosphoryl)oxy)methyl)tetrahydrofuran-3,4-diyl diacetate [Compound 1a]", "EC50": "10 to 50"}
{"compound": "(2R,3R,4R,5R)-2-(4-aminopyrrolo[2,1-f][1,2,4]triazin-7-yl)-2-cyano-5-((((S)-(((S)-1-(2-ethylbutoxy)-1-oxopropan-2-yl)amino)(((isopropoxycarbonyl)oxy)methoxy)phosphoryl)oxy)methyl)tetrahydrofuran-3,4-diyl diacetate [Compound 5b]", "EC50": "5 to 10"}
{"compound": "(2R,3R,4R,5R)-2-(4-aminopyrrolo[2,1-f][1,2,4]triazin-7-yl)-2-cyano-5-((((S)-(((S)-1-isopropoxy-1-oxopropan-2-yl)amino)(((isopropoxycarbonyl)oxy)methoxy)phosphoryl)oxy)methyl)tetrahydrofuran-3,4-diyl diacetate [Compound 1b]", "EC50": "5 to 10"}
{"compound": "(2R,3R,4R,5R)-2-(4-aminopyrrolo[2,1-f][1,2,4]triazin-7-yl)-5-((((bis(((isopropoxycarbonyl)oxy)methoxy))phosphoryl)oxy)methyl)-2-cyanotetrahydrofuran-3,4-diyldiisopropyl bis(carbonate) [Compound 28]", "EC50": "10 to 50"}
